By GI50 is commonly meant the concentration at which growth is held to half of that of the control. The low end stands for greater sensitivity of the cells, the high end for lower sensitivity of the cells.

The results in this text go back to ChEMBL document CHEMBL3352739, “Comparative in vivo evaluation of polyalkoxy substituted 4H-chromenes and oxa-podophyllotoxins as microtubule destabilizing agents in the phenotypic sea urchin embryo assay” (2014).

Assay [1] concerns Paracentrotus lividus. Description: Antimitotic microtubule destabilizing activity in Paracentrotus lividus L embryos assessed as induction of cleavage arrest.
The subject of assay [2] is Paracentrotus lividus. As to the kind of experiment: Antimitotic microtubule destabilizing activity in Paracentrotus lividus L embryos assessed as induction of embryo spinning.
The test system of assay [3] is Paracentrotus lividus. Description: Antimitotic microtubule destabilizing activity in Paracentrotus lividus L embryos assessed as induction of cleavage alteration.
Assay [4] is described as follows: Cytotoxicity against human NCI60 cells assessed as mean cell growth at 10 uM. It is filed as functional.
Assay [5] in a line: Cytotoxicity against human NCI60 cells. It is filed as functional.

Consider `COc1cc(C2C(C#N)=C(N)Oc3cc(O)ccc32)c(OC)c(OC)c1OC` (centres undefined), for which the EC in assay [1], in assay [2] and in assay [3] was over 4 µM throughout.

For `COc1cccc(C2C(C#N)=C(N)Oc3cc(O)ccc32)c1` (centres undefined), the EC in assay [1] was 2 µM; in assay [2], over 5 µM; in assay [3] it was 0.1 µM.

For `COc1ccc(C2C(C#N)=C(N)Oc3cc(O)ccc32)c(OC)c1` (centres undefined), the EC in assay [1], in assay [2] and in assay [3] was over 4 µM in each case.

Regarding `COc1ccc2c(c1)OC(N)=C(C#N)[C@H]2c1cc(OC)c(OC)c(OC)c1`, the EC is over 4 µM in assay [1], over 5 µM in assay [2] and 2 µM in assay [3].

For `COc1c(C2C(C#N)=C(N)Oc3cc(O)ccc32)cc2c(c1OC)OCO2` (centres undefined), the EC in assay [1] is over 4 µM; in assay [2] it was over 4 µM; in assay [3], 4 µM.

Turning to `COc1ccc(C2C(C#N)=C(N)Oc3cc(O)ccc32)cc1OC` (centres undefined), the EC in assay [1], in assay [2] and in assay [3] was over 4 µM each time. Besides, in assay [4], the Activity is on record as 99.4%.

`N#CC1=C(N)Oc2cc(O)ccc2C1c1cc2c(c([N+](=O)[O-])c1)OCCO2` (centres undefined): the EC is over 4 µM in assay [1], over 4 µM in assay [2] and 4 µM in assay [3]. This compound registered a GI50 in assay [5] of 99300 nM.

As to `COc1ccc(OC)c(C2C(C#N)=C(N)Oc3cc(O)ccc32)c1` (centres undefined), the values for the EC in assay [1], in assay [2] and in assay [3] were over 4 µM, over 4 µM and 1 µM, respectively. For the same compound, the Activity in assay [4] is given as 94.5%.

As for `COc1cc(OC)c(C2C(C#N)=C(N)Oc3cc(O)ccc32)c(OC)c1` (centres undefined), the EC in assay [1] and in assay [2] was over 4 µM each time.

With `COc1cccc(C2C(C#N)=C(N)Oc3cc(O)ccc32)c1OC` (centres undefined), the EC in assay [1], in assay [2] and in assay [3] was over 4 µM each time.

Regarding `COc1ccc2c(c1)OC(N)=C(C#N)[C@@H]2c1cc(OC)c(OC)c(OC)c1`, the results for the EC in assay [1], in assay [2] and in assay [3] were 0.04 µM, 0.2 µM and 0.005 µM, respectively.

`COc1cccc([C@@H]2C(C#N)=C(N)Oc3cc(OC)ccc32)c1`: the EC in assay [1] amounted to 0.5 µM; in assay [2] it was 4 µM; in assay [3] it was 0.05 µM.

On to `COc1ccc2c(c1)OC(N)=C(C#N)C2c1ccc(OC)c(OC)c1` (centres undefined), for which the EC in assay [1] came to 0.2 µM; in assay [2], 1 µM; in assay [3], 0.05 µM.

`COc1cc(C2C(C#N)=C(N)Oc3cc4c(cc32)OCO4)cc2c1OCO2` (centres undefined): the results for the EC in assay [1], in assay [2] and in assay [3] were 0.05 µM, 0.2 µM and 0.005 µM, respectively. Also, in assay [5], it took 389 nM to inhibit growth by half (GI50).

Take `COc1ccc(C2C(C#N)=C(N)Oc3cc(O)ccc32)cc1` (centres undefined): the EC in assay [1], in assay [2] and in assay [3] was over 4 µM in each case. In addition, the Activity in assay [4] came to 96%.

On to `COc1cc(C2C(C#N)=C(N)Oc3cc(O)ccc32)cc2c1OCCO2` (centres undefined), for which the EC is 4 µM in assay [1], over 5 µM in assay [2] and 1 µM in assay [3].

Take `COc1cccc([C@H]2C(C#N)=C(N)Oc3cc(OC)ccc32)c1`: the EC in assay [1] came to 0.01 µM; in assay [2], 0.05 µM; in assay [3] it was 0.001 µM.

Regarding `COc1ccc2c(c1)OC(N)=C(C#N)C2c1cc(OC)c2c(c1)OCO2` (centres undefined), the EC in assay [1] was 0.02 µM; in assay [2], 0.05 µM; in assay [3], 0.005 µM.

With `N#CC1=C(N)Oc2cc(O)ccc2C1c1ccccc1F` (centres undefined), the figures for the EC in assay [1], in assay [2] and in assay [3] were 4 µM, over 5 µM and 1 µM, respectively.

As for `COc1ccc2c(c1)OC(N)=C(C#N)C2c1cc(OC)c2c(c1OC)OCO2` (centres undefined), the EC came out at 1 µM in assay [1], 4 µM in assay [2] and 0.1 µM in assay [3].

In the case of `COc1ccccc1C1C(C#N)=C(N)Oc2cc(O)ccc21` (centres undefined), the EC was over 4 µM in assay [1], over 5 µM in assay [2] and 0.5 µM in assay [3].

For the compound `CCOc1ccccc1C1C(C#N)=C(N)Oc2cc(OC)ccc21` (centres undefined), the EC amounted to 0.2 µM in assay [1], 0.5 µM in assay [2] and 0.02 µM in assay [3].

With `COc1ccc2c(c1)OC(N)=C(C#N)C2c1cc2c(c([N+](=O)[O-])c1)OCCO2` (centres undefined), the EC amounted to 0.1 µM in assay [1], 1 µM in assay [2] and 0.02 µM in assay [3].

`N#CC1=C(N)Oc2cc(O)ccc2C1c1ccccc1I` (centres undefined): the EC in assay [1] is over 4 µM; in assay [2] it was over 4 µM; in assay [3], 4 µM.

Regarding `COc1ccc(C2C(C#N)=C(N)Oc3cc(OC)ccc32)cc1` (centres undefined), the EC in assay [1] was 1 µM; in assay [2] it was over 5 µM; in assay [3], 0.1 µM.

For the compound `N#CC1=C(N)Oc2cc(O)ccc2C1c1ccccc1` (centres undefined), the EC was 2 µM in assay [1], over 5 µM in assay [2] and 0.5 µM in assay [3].

With `COc1cc(C2C(C#N)=C(N)Oc3cc(O)ccc32)cc2c1OCO2` (centres undefined), the values for the EC in assay [1], in assay [2] and in assay [3] were 4 µM, 10 µM and 0.5 µM, respectively.

Take `COc1ccc(C2C(C#N)=C(N)Oc3cc(OC)ccc32)c(OC)c1` (centres undefined): the EC in assay [1] was found to be 1 µM; in assay [2], 4 µM; in assay [3] it was 0.1 µM.

`COc1ccc2c(c1)OC(N)=C(C#N)C2c1cc(OC)c2c(c1)OCCO2` (centres undefined): the EC was 0.02 µM in assay [1], 0.1 µM in assay [2] and 0.005 µM in assay [3].

Consider `COc1ccc2c(c1)OC(N)=C(C#N)C2c1cc(N)c2c(c1)OCCO2` (centres undefined), for which the EC in assay [1] worked out at 0.5 µM; in assay [2], 5 µM; in assay [3], 0.1 µM.

As to `COc1cc([C@@H]2c3cc4c(cc3[C@H](O)[C@H]3COC(=O)[C@H]23)OCO4)cc(OC)c1OC` [PODOFILOX], the EC worked out at 0.05 µM in assay [1], 0.5 µM in assay [2] and 0.02 µM in assay [3]. Also, the GI50 in assay [5] worked out at 21 nM.

As to `COc1ccc2c(c1)OC(N)=C(C#N)C2c1cccc(OC)c1OC` (centres undefined), the EC in assay [1] worked out at 2 µM; in assay [2], 4 µM; in assay [3] it was 0.2 µM.

Regarding `COc1ccc(C2C(C#N)=C(N)Oc3cc(O)ccc32)c(OC)c1OC` (centres undefined), the EC in assay [1], in assay [2] and in assay [3] was over 4 µM throughout.
